Assay [1] deals with SGC-7901. The assay is described as follows: cells. Particulars: Homo sapiens, SGC-7901, 48 h.
Description: Cytotoxicity against human SGC7901 cells after 48 hrs by MTT assay
In assay [2] the test system is MCF7. Kind of assay: cells. Particulars: Homo sapiens, MCF7, 48 h.
Description: Cytotoxicity against human MCF7 cells after 48 hrs by MTT assay
The test system of assay [3] is HepG2. Kind of assay: cells. Particulars: Homo sapiens, HepG2, 48 h.
Description: Cytotoxicity against human HepG2 cells after 48 hrs by MTT assay
The subject of assay [4] is Bacillus subtilis. The assay is described as follows: Antibacterial activity against Bacillus subtilis […] assessed as growth inhibition after 24 hrs by MTT assay. Format: functional. In general terms: Formazan colour is commonly taken as a measure of viable cells.
Assay [5] deals with Escherichia coli. The assay is described as follows: Antibacterial activity against Escherichia coli ATCC 25922 assessed as growth inhibition after 24 hrs by MTT assay. Format: functional. Particulars: ATCC 25922, 24 h.
The subject of assay [6] is Pseudomonas aeruginosa. The assay is described as follows: Antibacterial activity against Pseudomonas aeruginosa ATCC 27853 assessed as growth inhibition after 24 hrs by MTT assay. The assay is classed as functional. Particulars: ATCC 27853, 24 h.
Assay [7] has as its system Staphylococcus aureus. Kind of assay: Antibacterial activity against Staphylococcus aureus ATCC 530 assessed as growth inhibition after 24 hrs by MTT assay. The assay is classed as functional. Particulars: ATCC 530, 24 h.
Assay [8] is described as follows: Inhibition of Escherichia coli thymidylate synthase by spectrophotometric analysis.

Converted amounts (≈) assume the structure as drawn.

In general, IC50 refers to the concentration needed to halve the response being measured. Higher therefore signals weaker potency in that assay. For the compound `Cc1ncc([N+](=O)[O-])n1CCSc1nnc(-c2cccs2)o1`, the IC50 in assay [1] is 30.8 µM; in assay [2] it was 25.8 µM; in assay [3], 20.5 µM.
What is called MIC is the least concentration at which growth counts as inhibited. Consider `NC[C@H]1O[C@H](O[C@H]2[C@H](O)[C@@H](O[C@H]3O[C@H](CO)[C@@H](O)[C@H](N)[C@H]3O)[C@H](N)C[C@@H]2N)[C@H](O)[C@@H](O)[C@@H]1O` [KANAMYCIN], for which the MIC in assay [4] was found to be 1.56 µg/mL (≈ 3.22 µM); in assay [5], 3.13 µg/mL (≈ 6.46 µM); in assay [6], 3.13 µg/mL (≈ 6.46 µM); in assay [7], 1.56 µg/mL (≈ 3.22 µM).
Regarding `Cc1ncc([N+](=O)[O-])n1CCSc1nnc(-c2ccccc2)o1`, the IC50 in assay [1] was determined as 30.1 µM; in assay [2], 20.5 µM; in assay [3], 17.5 µM.
`COc1cc(OC)cc(-c2nnc(SCCn3c([N+](=O)[O-])cnc3C)o2)c1`: the figures for the half-inhibitory concentration (IC50) in assay [1], in assay [2] and in assay [3] were 9.6 µM, 12.8 µM and 10.5 µM, respectively.
Turning to `CCOc1ccc(-c2nnc(SCCn3c([N+](=O)[O-])cnc3C)o2)cc1`, the IC50 came to 14.1 µM in assay [1], 16.6 µM in assay [2], 6.3 µM in assay [8] and 1.9 µM in assay [3].
As to `Cc1ncc([N+](=O)[O-])n1CCSc1nnc(-c2ccccc2Cl)o1`, the half-maximal inhibitory concentration (IC50) in assay [1] was 32.6 µM; in assay [2], 22.5 µM; in assay [3] it was 15.6 µM.
As to `Cc1ccccc1-c1nnc(SCCn2c([N+](=O)[O-])cnc2C)o1`, the values for the IC50 in assay [1], in assay [2] and in assay [3] were 32.3 µM, 15.8 µM and 5.1 µM, respectively.
With `Cc1ncc([N+](=O)[O-])n1CCSc1nnc(-c2ccc(C(C)(C)C)cc2)o1`, the IC50 in assay [1] was 31.1 µM; in assay [2], 22.1 µM; in assay [8] it was greater than 10 µM; in assay [3] it was 4 µM.
Consider `Cc1ncc([N+](=O)[O-])n1CCSc1nnc(-c2ccc(F)cc2)o1`, for which the concentration for half-maximal inhibition (IC50) is 5.3 µM in assay [1], 8.1 µM in assay [2], 3.9 µM in assay [8] and 0.6 µM in assay [3].
Take `Cc1ncc([N+](=O)[O-])n1CCSc1nnc(-c2ccco2)o1`: the results for the IC50 in assay [1], in assay [2] and in assay [3] were 31.7 µM, 29.5 µM and 22.6 µM, respectively.
For `Cc1ncc([N+](=O)[O-])n1CCSc1nnc(-c2ccc3ccccc3c2)o1` the same measures were 30.7 µM, 34.1 µM and 10.1 µM.
In the case of `Cc1ncc([N+](=O)[O-])n1CCSc1nnc(-c2ccccc2O)o1`, the IC50 in assay [1] turned out to be 30.5 µM; in assay [2] it was 28.3 µM; in assay [3] it was 19.6 µM.
Consider `O=c1[nH]cc(F)c(=O)[nH]1` [FLUOROURACIL], for which the IC50 in assay [1] turned out to be 28.9 µM; in assay [2] it was 16.7 µM; in assay [3], 22.8 µM.
On to `Cc1ncc([N+](=O)[O-])n1CCSc1nnc(-c2ccccc2F)o1`, for which the IC50 in assay [1] turned out to be 33.7 µM; in assay [2], 20.5 µM; in assay [3], 3.7 µM.
In the case of `Cc1ncc([N+](=O)[O-])n1CCSc1nnc(-c2ccc3c(c2)OCCO3)o1`, the IC50 in assay [1] was found to be 9.2 µM; in assay [2] it was 14.5 µM; in assay [8], 2.4 µM; in assay [3], 4.1 µM.
As to `Cc1ncc([N+](=O)[O-])n1CCSc1nnc(-c2ccc(Cl)cc2)o1`, the half-inhibitory concentration (IC50) in assay [1] is 31.9 µM; in assay [2], 18.7 µM; in assay [3], 7.8 µM.
For `Cc1ncc([N+](=O)[O-])n1CCSc1nnc(-c2ccc(N)nc2)o1` the same measures were 30.9 µM, 26.8 µM and 9.4 µM.
For the compound `Cc1ncc([N+](=O)[O-])n1CCSc1nnc(-c2ccc([N+](=O)[O-])cc2)o1`, the IC50 in assay [1] worked out at 12.2 µM; in assay [2] it was 12.7 µM; in assay [3] it was 4.1 µM.
For the compound `COc1ccc(-c2nnc(SCCn3c([N+](=O)[O-])cnc3C)o2)c(O)c1`, the half-maximal inhibitory concentration (IC50) in assay [1] was 11.7 µM; in assay [2], 21.8 µM; in assay [3], 11 µM.
The corresponding values for `Cc1ncc([N+](=O)[O-])n1CCSc1nnc(-c2ccc(N(C)C)cc2)o1` are 32.8 µM, 14.9 µM and 11.9 µM.
`COc1cc(-c2nnc(SCCn3c([N+](=O)[O-])cnc3C)o2)cc(OC)c1OC`: the half-inhibitory concentration (IC50) in assay [1] is 34.8 µM; in assay [2], 30.6 µM; in assay [8], greater than 10 µM; in assay [3], 14.9 µM.
For the compound `Cc1ccc(-c2nnc(SCCn3c([N+](=O)[O-])cnc3C)o2)cc1`, the 50% inhibitory concentration (IC50) was 12.5 µM in assay [1], 15.5 µM in assay [2], greater than 10 µM in assay [8] and 2.2 µM in assay [3].
Turning to `COc1ccc(-c2nnc(SCCn3c([N+](=O)[O-])cnc3C)o2)cc1`, the results for the IC50 in assay [1], in assay [2] and in assay [3] were 10.2 µM, 10.6 µM and 5.8 µM, respectively.
For `Cc1ncc([N+](=O)[O-])n1CCSc1nnc(-c2cnccc2N)o1`, the concentration for half-maximal inhibition (IC50) in assay [1] is 34.5 µM; in assay [2], 29.3 µM; in assay [8], 1.8 µM; in assay [3], 8.4 µM. Also, the MIC in assay [4] was determined as 50 µg/mL (≈ 144 µM); in assay [5] it was 12.5 µg/mL (≈ 36 µM); in assay [6], 12.5 µg/mL (≈ 36 µM); in assay [7], 25 µg/mL (≈ 72 µM).
Regarding `Cc1ncc([N+](=O)[O-])n1CCSc1nnc(-c2ccncc2)o1`, the IC50 in assay [1] worked out at 15.9 µM; in assay [2], 12.6 µM; in assay [3], 14.8 µM.
With `Cc1ncc([N+](=O)[O-])n1CCSc1nnc(-c2ccnc(Cl)c2)o1`, the IC50 in assay [1] was found to be 32.3 µM; in assay [2], 40.5 µM; in assay [8], 4.1 µM; in assay [3], 11.6 µM.
On to `Cc1ncc([N+](=O)[O-])n1CCSc1nnc(-c2ccc(N)cc2)o1`, for which the half-inhibitory concentration (IC50) stood at 31.7 µM in assay [1], 19.8 µM in assay [2] and 6.7 µM in assay [3].
Take `Cc1ncc([N+](=O)[O-])n1CCSc1nnc(-c2ccccn2)o1`: the IC50 came to 30 µM in assay [1], 39.1 µM in assay [2] and 20.2 µM in assay [3].
Consider `Cc1ncc([N+](=O)[O-])n1CCSc1nnc(-c2ccccc2N)o1`, for which the half-inhibitory concentration (IC50) in assay [1] came out at 35.1 µM; in assay [2], 20.1 µM; in assay [3], 4.5 µM.
In the case of `Cc1ncc([N+](=O)[O-])n1CCSc1nnc(-c2cccnc2)o1`, the IC50 in assay [1] turned out to be 31.6 µM; in assay [2], 28.7 µM; in assay [3] it was 9.6 µM.
In the case of `Cc1ncc([N+](=O)[O-])n1CCSc1nnc(-c2ccnc(N)c2)o1`, the 50% inhibitory concentration (IC50) in assay [1] was 30 µM; in assay [2] it was 20 µM; in assay [8] it was 1.27 µM; in assay [3] it was 0.9 µM. Moreover, the minimal inhibitory concentration (MIC) in assay [4] worked out at 50 µg/mL (≈ 144 µM); in assay [5], 3.13 µg/mL (≈ 9.01 µM); in assay [6], 6.25 µg/mL (≈ 18 µM); in assay [7] it was 25 µg/mL (≈ 72 µM).
As to `Cc1cccc(-c2nnc(SCCn3c([N+](=O)[O-])cnc3C)o2)c1O`, the IC50 in assay [1] was 35.9 µM; in assay [2], 19.9 µM; in assay [3], 8.7 µM.
As for `Nc1nc2[nH]cc(CCc3ccc(C(=O)N[C@@H](CCC(=O)O)C(=O)O)cc3)c2c(=O)[nH]1` [PEMETREXED], the midpoint of inhibition in assay [8], the IC50, lay at 76 µM.
In the case of `CCOc1ccccc1-c1nnc(SCCn2c([N+](=O)[O-])cnc2C)o1`, the IC50 was 30.3 µM in assay [1], 25.9 µM in assay [2] and 9.8 µM in assay [3].
`Cc1ncc([N+](=O)[O-])n1CCSc1nnc(-c2ccc(C(C)C)cc2)o1`: the IC50 was 13.8 µM in assay [1], 20.7 µM in assay [2], greater than 10 µM in assay [8] and 4.3 µM in assay [3].
As to `Cc1ncc([N+](=O)[O-])n1CCSc1nnc(-c2ccccc2[N+](=O)[O-])o1`, the IC50 in assay [1] was 30 µM; in assay [2], 18.3 µM; in assay [8], 0.47 µM; in assay [3], 0.7 µM. Also, the MIC in assay [4] was determined as 3.13 µg/mL (≈ 8.32 µM); in assay [5], 1.56 µg/mL (≈ 4.15 µM); in assay [6], 3.13 µg/mL (≈ 8.32 µM); in assay [7] it was 1.56 µg/mL (≈ 4.15 µM).
On to `COc1ccccc1-c1nnc(SCCn2c([N+](=O)[O-])cnc2C)o1`, for which the IC50 in assay [1] turned out to be 30.5 µM; in assay [2] it was 10.8 µM; in assay [3], 10 µM.
As to `Cc1ccc(-c2nnc(SCCn3c([N+](=O)[O-])cnc3C)o2)c(O)c1`, the half-inhibitory concentration (IC50) in assay [1] stood at 36.7 µM; in assay [2], 23.5 µM; in assay [3], 16.6 µM.
In the case of `Cc1nc(=O)c2cc(CN(C)c3ccc(C(=O)N[C@@H](CCC(=O)O)C(=O)O)s3)ccc2[nH]1` [RALTITREXED], the concentration for half-maximal inhibition (IC50) turned out to be 8.7 µM in assay [1], 12.6 µM in assay [2] and 1.3 µM in assay [3]. Further, the MIC in assay [4] was found to be 25 µg/mL (≈ 54.5 µM); in assay [5], 25 µg/mL (≈ 54.5 µM); in assay [6], 50 µg/mL (≈ 109 µM); in assay [7], 50 µg/mL (≈ 109 µM).
`Cc1ncc([N+](=O)[O-])n1CCSc1nnc(-c2cccc3ccccc23)o1`: the half-maximal inhibitory concentration (IC50) was found to be 8.8 µM in assay [1], 30.1 µM in assay [2] and 10.6 µM in assay [3].

These data come from ChEMBL document CHEMBL2346585, “Novel 1,3,4-oxadiazole thioether derivatives targeting thymidylate synthase as dual anticancer/antimicrobial agents” (Bioorg Med Chem, 2013).
